In PubChem BioAssay (NCI):
“And” between values parts separate entries of the source, which are not always exact repeats. Equal values may be shown once.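 Following 48 hours of exposure in 96-well plates, responses at five concentrations were used to interpolate endpoints linearly. GI50 = concentration required for 50% inhibition of growth. At the TGI there is no net growth.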

Key:
Test in all cases: NCI tumour cell line growth inhibition, 48 h
UACC-257 melanoma = system: UACC-257 melanoma
HT29 colon = system: HT29 colon
MOLT-4 leukemia = system: MOLT-4 leukemia
NCI-H460 lung = system: NCI-H460 lung
LXFL 529 NSCLC = system: LXFL 529 NSCLC
HOP-92 NSCLC = system: HOP-92 NSCLC
SK-MEL-2 melanoma = system: SK-MEL-2 melanoma
IGROV1 ovarian = system: IGROV1 ovarian
NCI-H226 lung = system: NCI-H226 lung
NCI-H23 lung = system: NCI-H23 lung

| SMILES | TGI (UACC-257 melanoma) [µM] | TGI (HT29 colon) [µM] | TGI (MOLT-4 leukemia) [µM] | TGI (NCI-H460 lung) [µM] | TGI (LXFL 529 NSCLC) [µM] | TGI (HOP-92 NSCLC) | TGI (SK-MEL-2 melanoma) | TGI (IGROV1 ovarian) [µM] | TGI (NCI-H226 lung) [µM] | TGI (NCI-H23 lung) [µM] | GI50 (UACC-257 melanoma) [µM] | GI50 (HT29 colon) [µM] | GI50 (MOLT-4 leukemia) [µM] | GI50 (NCI-H460 lung) [µM] | GI50 (LXFL 529 NSCLC) [µM] | GI50 (SK-MEL-2 melanoma) | GI50 (NCI-H23 lung) | GI50 (HOP-92 NSCLC) | GI50 (IGROV1 ovarian) |
| --- | --- | --- | --- | --- | --- | --- | --- | --- | --- | --- | --- | --- | --- | --- | --- | --- | --- | --- | --- |
| CSc1ccc(N2C(=O)C3c4[nH]c5ccccc5c4C4CCC(C(C)(C)C)CC4C3C2=O)cc1 (stereo not given) | > 100 | > 100 | 31.7 | 34.4 | 47.5 | 27.1 µM | 43.1 µM | 32 | 42.9 | 31.9 |  |  |  |  |  |  |  |  |  |
| Clc1ccc(C2SCc3nc4ccccc4n32)cc1 (stereo not given) |  | 49.4 | 56.1 | 93.3 | 87.1 | 22.3 µM | 33 µM | 55.9 | 75.4 | 48.3 |  |  |  |  |  |  |  |  |  |
| COCC(C#N)NC1CC(OC2CC(O)(C(=O)CO)Cc3c(O)c4c(c(O)c32)C(=O)c2c(OC)cccc2C4=O)OC(C)C1O (stereo not given) | 0.368 | 9.03 | 0.0471 | 0.189 | 1.06 | 5 µM | 0.316 µM | 0.582 | 0.117 | 0.682 |  |  |  |  |  |  |  |  |  |
| CC(=O)/C=C(/C)[O-].CC(=O)/C=C(/C)[O-].CC(=O)[CH-]C(C)=O.CC(=O)[CH-]C(C)=O.[Zr+4] | > 100 | > 100 | > 100 | > 100 | > 100 |  | > 100 µM |  |  | > 100 | > 100 | > 100 | > 100 | > 100 | > 100 | > 100 µM | > 100 µM |  |  |
| Cc1cc(C)[n+]2c(c1)C=CC2 | > 100 | > 100 |  | > 100 | > 100 | > 100 µM | 93.8 µM |  | 60.8 | 84.2 |  |  |  |  |  |  |  |  |  |
| O=C1Sc2ccccc2C(=O)N2CCSC12 (stereo not given) | > 100 |  | > 100 | > 100 | > 100 | > 100 µM | > 100 µM |  |  | > 100 |  |  |  |  |  |  |  |  |  |
| NC(=Nc1ccccc1)N/N=C/c1c[nH]c2ccccc12 | 12.2 | 1.54 | 48.4 | 4.41 | 14.4 | 6.01 µM | 4.95 µM | 32.7 | 16.1 | 2.93 |  |  |  |  |  |  |  |  |  |
| Cc1cc2nc3c(C#N)c(C)c(CCCl)c(Cl)n3c2cc1C | 5.02 | 5.91 | 6.95 | > 36.6 |  | 4.76 µM | 3.99 µM | 3.93 | 8.17 | 5.29 |  |  |  |  |  |  |  |  |  |
| CCOP(=O)(OCC)/C(=C/n1c(=S)[nH]c2ccccc21)C(=O)OC | > 100 | > 100 | > 100 | > 31.6 |  | > 100 µM | > 100 µM | > 100 | > 100 | > 100 |  |  |  |  |  |  |  | > 100 µM |  |
| N#Cc1ccc(-c2ccc(Cl)cc2)n(C2OC(CO)C(O)C(O)C2O)c1=S (stereo not given) | > 100 | > 100 | > 100 | > 100 |  | > 100 µM and 51.5 µM | > 100 µM and 52.5 µM | > 100 | > 100 | > 100 |  |  |  |  |  | > 100 µM and 10.6 µM | > 100 µM and 31.8 µM | > 100 µM and 14.6 µM | > 100 µM and 28 µM |
| CC1(C)CC(=O)c2c(N)n[nH]c2C1 | > 100 | > 100 | > 100 | > 100 |  | > 100 µM | > 100 µM | > 100 | > 100 | > 100 |  |  |  |  |  |  |  |  |  |
| c1ccc2c(c1)nnn2C1CCCCO1 (stereo not given) | > 100 | > 100 | > 100 | > 100 |  | > 100 µM | > 100 µM | > 100 | > 100 | > 100 |  |  |  |  |  |  |  |  |  |
| CC(C)OC1=C(CC2(C)OCCO2)C(=O)C12OCCO2 | > 100 | > 100 | > 100 | > 100 |  | > 100 µM | > 100 µM | > 100 | > 100 | > 100 |  |  |  |  |  |  |  |  |  |
| O=C(CC(=O)N1N=C(c2ccccc2)C(N=Nc2ccc(S(=O)(=O)CCOS(=O)(=O)O)cc2)C1=O)Nc1ccc(Cl)cc1 (stereo not given) | > 100 | > 100 | > 100 | > 100 |  | > 100 µM | > 100 µM | 72.3 | > 100 | > 100 |  |  |  |  |  |  |  |  |  |
| CC1(C)CCCCCC(O)C(O)CCC(C)(C)C1=O (stereo not given) | > 100 | > 100 | > 100 | > 100 |  | > 100 µM | > 100 µM | > 100 | > 100 | > 100 |  |  |  |  |  |  |  |  |  |
| N=C1C=CC(=C(c2ccc(N)cc2)c2ccc(N)cc2)C=C1 | 18.1 | 14.3 | 42.1 | 36.9 | 14 | 12.7 µM | 10.4 µM | 31.5 | 18.2 | 16.3 |  |  |  |  |  |  |  |  |  |
